From PubChem BioAssay AID2060885 (Molecular Pharmacology Branch, DTP, NCI, 2025)

Tested on: NCI-H23 complex spheroids with HUVEC/MSC, viability
Test: Anticancer human tumor NCI-H23 cell line growth inhibition [RAS];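 note: spheroids exposed to compound for 7 days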;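 for viability, T/C: 100% = DMSO vehicle control viability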
Details: for IC50: curve of first compound; for viability, T/C: stronger effect = lower value
Method in brief: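 Multi-cell-type spheroids: tumor cells plus HUVEC endothelial cells and mesenchymal stem cells. RAS-pathway inhibitors were combined with targeted agents, each dosed in half-log steps down from clinical Cmax, or from 10 microM when Cmax was unknown.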

[1] = second compound 0.00316 µM, first compound 0.0316 µM
[2] = second compound 0.00316 µM, first compound 0.1 µM
[3] = second compound 0.00316 µM, first compound 0.316 µM
[4] = second compound 0.00316 µM, first compound 1 µM
[5] = second compound 0.01 µM, first compound 0.0316 µM
[6] = second compound 0.01 µM, first compound 0.1 µM
[7] = second compound 0.01 µM, first compound 0.316 µM
[8] = second compound 0.01 µM, first compound 1 µM
[9] = second compound 0.0316 µM, first compound 0.0316 µM
[10] = second compound 0.0316 µM, first compound 0.1 µM
[11] = second compound 0.0316 µM, first compound 0.316 µM
[12] = second compound 0.0316 µM, first compound 1 µM
[13] = second compound 0.1 µM, first compound 0.0316 µM
[14] = second compound 0.1 µM, first compound 0.1 µM
[15] = second compound 0.1 µM, first compound 0.316 µM
[16] = second compound 0.1 µM, first compound 1 µM
[17] = second compound 0.316 µM, first compound 0.0316 µM
[18] = second compound 0.316 µM, first compound 0.1 µM
[19] = second compound 0.316 µM, first compound 0.316 µM
[20] = second compound 0.316 µM, first compound 1 µM
[21] = second compound 1 µM, first compound 0.0316 µM
[22] = second compound 1 µM, first compound 0.1 µM
[23] = second compound 1 µM, first compound 0.316 µM
[24] = second compound 1 µM, first compound 1 µM
[25] = second compound 0.00316 µM, first compound 0.000949 µM
[26] = second compound 0.00316 µM, first compound 0.003 µM
[27] = second compound 0.00316 µM, first compound 0.00949 µM
[28] = second compound 0.00316 µM, first compound 0.03 µM
[29] = second compound 0.00316 µM, first compound 0.0949 µM
[30] = second compound 0.00316 µM, first compound 0.3 µM
[31] = second compound 0.01 µM, first compound 0.000949 µM
[32] = second compound 0.01 µM, first compound 0.003 µM
[33] = second compound 0.01 µM, first compound 0.00949 µM
[34] = second compound 0.01 µM, first compound 0.03 µM
[35] = second compound 0.01 µM, first compound 0.0949 µM
[36] = second compound 0.01 µM, first compound 0.3 µM
[37] = second compound 0.0316 µM, first compound 0.000949 µM
[38] = second compound 0.0316 µM, first compound 0.003 µM
[39] = second compound 0.0316 µM, first compound 0.00949 µM
[40] = second compound 0.0316 µM, first compound 0.03 µM
[41] = second compound 0.0316 µM, first compound 0.0949 µM
[42] = second compound 0.0316 µM, first compound 0.3 µM
[43] = second compound 0.1 µM, first compound 0.000949 µM
[44] = second compound 0.1 µM, first compound 0.003 µM
[45] = second compound 0.1 µM, first compound 0.00949 µM
[46] = second compound 0.1 µM, first compound 0.03 µM
[47] = second compound 0.1 µM, first compound 0.0949 µM
[48] = second compound 0.1 µM, first compound 0.3 µM
[49] = second compound 0.316 µM, first compound 0.000949 µM
[50] = second compound 0.316 µM, first compound 0.003 µM
[51] = second compound 0.316 µM, first compound 0.00949 µM
[52] = second compound 0.316 µM, first compound 0.03 µM
[53] = second compound 0.316 µM, first compound 0.0949 µM
[54] = second compound 0.316 µM, first compound 0.3 µM
[55] = second compound 1 µM, first compound 0.000949 µM
[56] = second compound 1 µM, first compound 0.003 µM
[57] = second compound 1 µM, first compound 0.00949 µM
[58] = second compound 1 µM, first compound 0.03 µM
[59] = second compound 1 µM, first compound 0.0949 µM
[60] = second compound 1 µM, first compound 0.3 µM

## CC(=O)OC12COC1CC(O)C1(C)C(=O)C(O)C3=C(C)C(OC(=O)C(O)C(NC(=O)OC(C)(C)C)c4ccccc4)CC(O)(C(OC(=O)c4ccccc4)C21)C3(C)C (stereo not drawn) + C=CC(=O)N1CCN(c2nc(OCC3CCCN3C)nc3c(F)c(-c4nc(N)cc(C)c4C(F)(F)F)c(Cl)cc23)C(C)C1
Second compound 0.00316 µM
  IC50: < 31.6 nM
Second compound 0.01 µM
  IC50: < 31.6 nM
Second compound 0.0316 µM
  IC50: < 31.6 nM
Second compound 0.1 µM
  IC50: < 31.6 nM
Second compound 0.316 µM
  IC50: < 31.6 nM
Second compound 1 µM
  IC50: < 31.6 nM
[1]
  viability, T/C: 12.9%
[2]
  viability, T/C: 17%
[3]
  viability, T/C: 17.9%
[4]
  viability, T/C: 16.9%
Second compound 0.00316 µM, first compound 3.16 µM
  viability, T/C: 25.1%
Second compound 0.00316 µM, first compound 10 µM
  viability, T/C: 41.9%
[5]
  viability, T/C: 14.2%
[6]
  viability, T/C: 17.6%
[7]
  viability, T/C: 13.1%
[8]
  viability, T/C: 18.7%
Second compound 0.01 µM, first compound 3.16 µM
  viability, T/C: 19.1%
Second compound 0.01 µM, first compound 10 µM
  viability, T/C: 28.7%
[9]
  viability, T/C: 15.5%
[10]
  viability, T/C: 17.1%
[11]
  viability, T/C: 15.6%
[12]
  viability, T/C: 15.9%
Second compound 0.0316 µM, first compound 3.16 µM
  viability, T/C: 23.9%
Second compound 0.0316 µM, first compound 10 µM
  viability, T/C: 26.2%
[13]
  viability, T/C: 12.4%
[14]
  viability, T/C: 15.2%
[15]
  viability, T/C: 11.8%
[16]
  viability, T/C: 14.9%
Second compound 0.1 µM, first compound 3.16 µM
  viability, T/C: 22.8%
Second compound 0.1 µM, first compound 10 µM
  viability, T/C: 22.1%
[17]
  viability, T/C: 11.1%
[18]
  viability, T/C: 13.9%
[19]
  viability, T/C: 14.3%
[20]
  viability, T/C: 16.3%
Second compound 0.316 µM, first compound 3.16 µM
  viability, T/C: 18.9%
Second compound 0.316 µM, first compound 10 µM
  viability, T/C: 26.8%
[21]
  viability, T/C: 11.8%
[22]
  viability, T/C: 14.7%
[23]
  viability, T/C: 14.4%
[24]
  viability, T/C: 15.4%
Second compound 1 µM, first compound 3.16 µM
  viability, T/C: 21.5%
Second compound 1 µM, first compound 10 µM
  viability, T/C: 20.9%

## CC1(C)CCC(Nc2ncc(C(F)(F)F)c(-c3c[nH]c4c(P(C)(C)=O)c(C#N)ccc34)n2)CN1 (stereo not drawn) + C=CC(=O)N1CCN(c2nc(OCC3CCCN3C)nc3c(F)c(-c4nc(N)cc(C)c4C(F)(F)F)c(Cl)cc23)C(C)C1
Second compound 0.00316 µM
  IC50: 1.11 nM
Second compound 0.01 µM
  IC50: < 0.949 nM
Second compound 0.0316 µM
  IC50: < 0.949 nM
Second compound 0.1 µM
  IC50: < 0.949 nM
Second compound 0.316 µM
  IC50: < 0.949 nM
Second compound 1 µM
  IC50: < 0.949 nM
[25]
  viability, T/C: 50.9%
[26]
  viability, T/C: 41.2%
[27]
  viability, T/C: 37%
[28]
  viability, T/C: 25.2%
[29]
  viability, T/C: 26.9%
[30]
  viability, T/C: 27.6%
[31]
  viability, T/C: 36.5%
[32]
  viability, T/C: 38.3%
[33]
  viability, T/C: 24.9%
[34]
  viability, T/C: 24%
[35]
  viability, T/C: 22.5%
[36]
  viability, T/C: 20%
[37]
  viability, T/C: 33.6%
[38]
  viability, T/C: 27.2%
[39]
  viability, T/C: 23.2%
[40]
  viability, T/C: 21%
[41]
  viability, T/C: 21.2%
[42]
  viability, T/C: 18.2%
[43]
  viability, T/C: 29.8%
[44]
  viability, T/C: 28.9%
[45]
  viability, T/C: 23.1%
[46]
  viability, T/C: 21.3%
[47]
  viability, T/C: 19.2%
[48]
  viability, T/C: 19.4%
[49]
  viability, T/C: 30.1%
[50]
  viability, T/C: 30.4%
[51]
  viability, T/C: 24.1%
[52]
  viability, T/C: 20.7%
[53]
  viability, T/C: 20.6%
[54]
  viability, T/C: 19.5%
[55]
  viability, T/C: 29.3%
[56]
  viability, T/C: 28.7%
[57]
  viability, T/C: 27.5%
[58]
  viability, T/C: 22.4%
[59]
  viability, T/C: 23.6%
[60]
  viability, T/C: 20.5%

## CCc1c2c(nc3ccc(O)cc13)-c1cc3c(c(=O)n1C2)COC(=O)[C@]3(O)CC + C=CC(=O)N1CCN(c2nc(OCC3CCCN3C)nc3c(F)c(-c4nc(N)cc(C)c4C(F)(F)F)c(Cl)cc23)C(C)C1
Second compound 0.00316 µM
  IC50: < 0.949 nM
Second compound 0.01 µM
  IC50: < 0.949 nM
Second compound 0.0316 µM
  IC50: < 0.949 nM
Second compound 0.1 µM
  IC50: < 0.949 nM
Second compound 0.316 µM
  IC50: < 0.949 nM
Second compound 1 µM
  IC50: < 0.949 nM
[25]
  viability, T/C: 41.6%
[26]
  viability, T/C: 33.6%
[27]
  viability, T/C: 11.7%
[28]
  viability, T/C: 3.8%
[29]
  viability, T/C: 2.71%
[30]
  viability, T/C: 2.26%
[31]
  viability, T/C: 40.6%
[32]
  viability, T/C: 26%
[33]
  viability, T/C: 8.37%
[34]
  viability, T/C: 3.98%
[35]
  viability, T/C: 2.14%
[36]
  viability, T/C: 1.54%
[37]
  viability, T/C: 33.3%
[38]
  viability, T/C: 22.2%
[39]
  viability, T/C: 9.5%
[40]
  viability, T/C: 4.43%
[41]
  viability, T/C: 2.52%
[42]
  viability, T/C: 1.84%
[43]
  viability, T/C: 32.5%
[44]
  viability, T/C: 19.6%
[45]
  viability, T/C: 6.47%
[46]
  viability, T/C: 3.28%
[47]
  viability, T/C: 2.14%
[48]
  viability, T/C: 2.49%
[49]
  viability, T/C: 27.8%
[50]
  viability, T/C: 17.5%
[51]
  viability, T/C: 7.44%
[52]
  viability, T/C: 3.62%
[53]
  viability, T/C: 2.47%
[54]
  viability, T/C: 3.05%
[55]
  viability, T/C: 25.9%
[56]
  viability, T/C: 21.2%
[57]
  viability, T/C: 8.12%
[58]
  viability, T/C: 4.94%
[59]
  viability, T/C: 2.44%
[60]
  viability, T/C: 2.51%

## Nc1ccn(C2OC(CO)C(O)C2(F)F)c(=O)n1 (stereo not drawn) + C=CC(=O)N1CCN(c2nc(OCC3CCCN3C)nc3c(F)c(-c4nc(N)cc(C)c4C(F)(F)F)c(Cl)cc23)C(C)C1
Second compound 0.00316 µM
  IC50: < 3.16 nM
Second compound 0.01 µM
  IC50: < 3.16 nM
Second compound 0.0316 µM
  IC50: < 3.16 nM
Second compound 0.1 µM
  IC50: < 3.16 nM
Second compound 0.316 µM
  IC50: < 3.16 nM
Second compound 1 µM
  IC50: < 3.16 nM
Second compound 0.00316 µM, first compound 0.00316 µM
  viability, T/C: 29.9%
Second compound 0.00316 µM, first compound 0.01 µM
  viability, T/C: 4.17%
[1]
  viability, T/C: 1.98%
[2]
  viability, T/C: 2.04%
[3]
  viability, T/C: 2.83%
[4]
  viability, T/C: 2.41%
Second compound 0.01 µM, first compound 0.00316 µM
  viability, T/C: 34.3%
Second compound 0.01 µM, first compound 0.01 µM
  viability, T/C: 3.54%
[5]
  viability, T/C: 2.75%
[6]
  viability, T/C: 2.39%
[7]
  viability, T/C: 2.2%
[8]
  viability, T/C: 2.54%
Second compound 0.0316 µM, first compound 0.00316 µM
  viability, T/C: 24.9%
Second compound 0.0316 µM, first compound 0.01 µM
  viability, T/C: 3.04%
[9]
  viability, T/C: 2.2%
[10]
  viability, T/C: 2.3%
[11]
  viability, T/C: 2.25%
[12]
  viability, T/C: 3.18%
Second compound 0.1 µM, first compound 0.00316 µM
  viability, T/C: 20.2%
Second compound 0.1 µM, first compound 0.01 µM
  viability, T/C: 2.99%
[13]
  viability, T/C: 2.63%
[14]
  viability, T/C: 1.97%
[15]
  viability, T/C: 2.37%
[16]
  viability, T/C: 2.09%
Second compound 0.316 µM, first compound 0.00316 µM
  viability, T/C: 24.8%
Second compound 0.316 µM, first compound 0.01 µM
  viability, T/C: 3.77%
[17]
  viability, T/C: 2.05%
[18]
  viability, T/C: 1.47%
[19]
  viability, T/C: 2.4%
[20]
  viability, T/C: 2.12%
Second compound 1 µM, first compound 0.00316 µM
  viability, T/C: 21.4%
Second compound 1 µM, first compound 0.01 µM
  viability, T/C: 4.48%
[21]
  viability, T/C: 3.25%
[22]
  viability, T/C: 2.34%
[23]
  viability, T/C: 2.71%
[24]
  viability, T/C: 2.67%
